Literature values, collected in patent US20240317750A1, “An Efficient Process for the Synthesis of Methylliberine and Polymorphs Thereof” (Fertis India Pvt. Ltd., priority 2021, published 2024).

Conditions: background statement, available toxicological information; no test described

For `COc1nc2c(c(=O)n1C)n(C)c(=O)n2C` [methylliberine, 2-Methoxy-1,7,9-trimethyl-7,9-dihydro-1H-purine-6,8-dione], the genotoxicity is given as “does not cause any genotoxicity”.
